Patent publication US20210228500A1, “CELLULAR RETINOID BINDING PROTEIN ANTAGONISTS AND USES THEREOF” (CASE WESTERN RESRVE UNIVERSITY, priority 2018, published 2021)

Assays:
[1] = target: T1, CRBP3 (Homo sapiens, UniProt P82980); assay: Crystal structure of CRBP3 in complex with abn-CBD; format: binding; conditions: crystal structure PDB No. 6E5W
T1 construct: thrombin cut site (residual residues after digestion) (C); 6x histidine tag (C, cleaved yes); made in house; host or cells: E. coli BL21 (DE3) (as for CRBP2)
T1 sequence (P82980 1-135): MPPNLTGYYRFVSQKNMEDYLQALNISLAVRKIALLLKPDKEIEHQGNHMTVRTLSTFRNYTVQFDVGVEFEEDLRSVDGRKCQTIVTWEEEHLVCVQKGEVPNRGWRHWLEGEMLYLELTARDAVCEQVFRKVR
Procedure: The cDNA of human CRBP3 was purchased from Origene Technologies. To introduce a thrombin cut site at the C-terminus of the protein, the cDNA was amplified by PCR and subcloned into pET30b vector. The next steps of the expression and purification of CRBP3 were identical to the procedure described above for CRBP2.
Crystals of CRBP1 in complex abn-CBD and its derivatives (abn-CBDO or CBDO) were grown essentially as described by Silvaroli et al (ACS Chem Biol. 2019, 15; 14(3)). The apo protein at 3 mg mL-1 was preincubated with 300 μM of a ligand in 10 mM Tris-HCl buffer, pH 8.0, 150 mM NaCl for 15 min on ice. This sample (1 μL) was mixed in 1:1 ratio with a crystallization solution composed of 0.1 M BisTris, pH 5.5, and 25% poly(ethylene glycol) (PEG) 3350 (w/v). Crystals of CRBP3 with abn-CBD were obtained by preincubating apoprotein at 8 mg mL-1 with 300 μM of the ligand for 15 min and setting up crystallization drops by mixing 1 μL of the protein sample with 1 μL of 0.2 M sodium malonate, pH 5.0 and 20% PEG 3350 (w/v) solution. For CRBP4, the crystallization conditions included 0.2 M NaCl, 0.1 M BisTris, pH 6.5, and 25% PEG 3350 (w/v). Similar to the other CRBPs, CRBP4 (6 mg mL^−1) was preincubated with abn-CBD prior to the crystallization. All of the protein crystals were obtained by the sitting drop vapor diffusion method at RT. […]

[2] = target: T2, RPE65 (Bos taurus, UniProt Q28175); assay: RPE65 isomerization activity assay; format: biochemical; conditions: bovine RPE microsomes preincubated with 10-50 μM
T2 construct: from tissue; host or cells: bovine RPE microsomes
Procedure: For the retinoid isomerization assay, UV-bleached RPE microsomes isolated from bovine eyes served as a source of robust RPE65 enzymatic activity. The isomerization reaction was performed in the presence of cellular retinaldehyde-binding protein (CRALBP) according to an established methodology published previously. The enzymatic reaction was initiated by addition of atROL the final concentration of 10 μM. After incubation at 30° C. for 30 min, the reaction products were extracted with hexane and analyzed by HPLC as described above.
(§1) Thus, to further probe the biological effect of this compound, we tested its effect on the key enzymes of the visual cycle. For this purpose, microsomes isolated from bovine RPE cells were preincubated with 10-50 μM of abn-CBD (1:1 to 1:5 molar excess of cannabinoid) prior to the initiation of the esterification, isomerization, or oxidation reactions by addition of an adequate retinoid substrate.

[3] = target: T3, RDH5 (Bos taurus, UniProt Q27979); assay: 11-cis-retinol oxidation assay; format: biochemical; conditions: bovine RPE microsomes preincubated with 10-50 μM
T3 construct: from tissue; host or cells: bovine RPE microsomes
T3 sequence (Q27979 1-318): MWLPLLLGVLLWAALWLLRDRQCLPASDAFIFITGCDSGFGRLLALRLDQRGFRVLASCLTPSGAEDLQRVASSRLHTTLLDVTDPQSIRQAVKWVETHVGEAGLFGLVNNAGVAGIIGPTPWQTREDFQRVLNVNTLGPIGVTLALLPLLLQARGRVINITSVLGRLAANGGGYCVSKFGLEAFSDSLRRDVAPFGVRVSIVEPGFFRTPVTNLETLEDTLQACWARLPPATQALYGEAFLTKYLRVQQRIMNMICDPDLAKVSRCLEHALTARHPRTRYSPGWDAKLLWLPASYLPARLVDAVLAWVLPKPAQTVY
Procedure: Dehydrogenase activity was assayed by monitoring oxidation of 11-cis-retinol to a corresponding aldehyde in bovine RPE microsomes. The reaction mixture containing 20 mM Tris/HCl buffer, pH 8.0, 1% BSA (w/v), 20 μM NAD+, and RPE microsomes (˜100 μg of total protein) in the total volume of 0.1 mL. 11-cis-Retinol (10 μM) was incubated at 30° C. for 10 min. The reaction was stopped by 0.2 mL of methanol that contained 40 mM hydroxylamine. After subsequent 15 min of incubation at RT, the retinoids were extracted with 0.3 mL of hexane and analyzed by normal-phase HPLC as described for the retinol esterification assay.
as §1

T2 sequence (Q28175 whole entry): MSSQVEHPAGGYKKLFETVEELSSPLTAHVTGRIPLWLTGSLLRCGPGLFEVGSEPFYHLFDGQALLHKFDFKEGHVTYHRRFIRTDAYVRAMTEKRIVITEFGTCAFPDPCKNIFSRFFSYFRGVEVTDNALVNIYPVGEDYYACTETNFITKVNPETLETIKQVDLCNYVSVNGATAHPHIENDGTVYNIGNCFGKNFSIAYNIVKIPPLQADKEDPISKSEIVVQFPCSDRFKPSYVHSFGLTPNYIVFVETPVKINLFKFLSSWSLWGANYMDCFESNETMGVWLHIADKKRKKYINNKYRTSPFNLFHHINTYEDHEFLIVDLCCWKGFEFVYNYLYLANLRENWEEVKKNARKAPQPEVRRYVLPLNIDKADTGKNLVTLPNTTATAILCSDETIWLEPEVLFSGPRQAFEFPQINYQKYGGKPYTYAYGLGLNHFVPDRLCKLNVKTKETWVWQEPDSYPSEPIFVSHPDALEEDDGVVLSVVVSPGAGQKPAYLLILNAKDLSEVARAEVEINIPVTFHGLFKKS

C=C(C)[C@@H]1CCC(C)=C[C@H]1c1c(O)cc(O)cc1CCCCC [abn-CBD, 4-[(1R,6R)-3-Methyl-6-prop-1-en-2-ylcyclohex-2-en-1-yl]-5-pentylbenzene-1,3-diol]
binding to CRBP3 [1]: bind abn-CBD similarly to CRBP1
effect on enzymatic activity of RPE65 [2]: did not cause a measurable decline
effect on enzymatic activity of RDH5 [3]: did not cause a measurable decline
